Data as given in PMC7217877, “N-AS-triggered SPMs are direct regulators of microglia in a model of Alzheimer’s disease” (Nature Communications, 2020).
Several values for one entry are separate records, joined by “and”; a condition that tells them apart may be missing. Identical values can stand only once. Like-named read-outs stand apart in the source and are kept apart here.

Legend:
SphK1 WT = target: T1, SphK1 WT (Homo sapiens, UniProt Q9NYA1); assay: filter binding assay of [3H] acetyl-CoA to SphK1 (Supplementary Fig 1f,g); conditions: for Km: read-out: KM of acetyl-CoA binding to SphK1
T1 construct: His (N); made in house
T1 sequence (Q9NYA1 whole entry): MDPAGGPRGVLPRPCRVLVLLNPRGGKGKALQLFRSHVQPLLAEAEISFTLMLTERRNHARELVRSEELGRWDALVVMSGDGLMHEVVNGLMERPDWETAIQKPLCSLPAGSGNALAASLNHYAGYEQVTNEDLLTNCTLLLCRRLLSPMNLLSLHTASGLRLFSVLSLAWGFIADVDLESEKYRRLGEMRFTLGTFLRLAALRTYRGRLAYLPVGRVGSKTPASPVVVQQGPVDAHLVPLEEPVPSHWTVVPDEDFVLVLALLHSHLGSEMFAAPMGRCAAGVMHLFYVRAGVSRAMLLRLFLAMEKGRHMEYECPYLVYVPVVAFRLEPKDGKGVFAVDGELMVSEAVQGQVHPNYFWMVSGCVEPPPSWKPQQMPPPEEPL
Excerpt: Single point mutations in SphK1 (R56A, R57A, R24A, R185A, D178A, and F192A) and COX2 (S565A, N181A, T564A, and S567A) were generated using the In-Fusion Cloning Kits (Clontech) and ORF cDNA expression plasmids of human SphK1 and COX2 gene (Sino Biological Inc, HG15679-NH and HG12036-NH), according to the manufacturer’s instructions. The forward and reverse primers described in Supplementary Table 4. The SphK1 WT, SphK1 mutants, COX2 WT, and COX2 mutant plasmids were transformed in the One shot TOP 10 competent cell (Invitrogen). The bacteria were grown in Luria-Bertani (LB, Invitrogen) plates supplemented with 50 μg ml^−1 kanamycin (Sigma-Aldrich) at 37 °C. The bacterial cell pellets were resuspended in lysis buffer containing 20 mM sodium phosphate (GE Healthcare), 500 mM NaCl (GE Healthcare), 20 mM imidazole (pH 7.4) (GE Healthcare), 0.2 mg ml^−1 lysozyme (Sigma-Aldrich), 20 μg ml^−1 DNase I (Roche), 1 mM MgCl2 (Sigma-Aldrich), and 1 mM PMSF (Sigma-Aldrich) before being lysed by sonication and clarified by centrifugation at 15,493×g for 10 min. Proteins were purified from the soluble fraction using His-Spin Trap columns (GE Healthcare) and the binding and acetylation assays were performed.
Briefly, SphK1 WT and mutant enzymes (1 mU) were resuspended in 100 μl reaction buffer (20 mM HEPES; pH 7.4, 50 mM NaCl, 10 mM MgCl2, 1 mM EGTA, 0.02% Triton-X100, and 100 μM sphingosine, all from Sigma-Aldrich). […] Briefly, COX2 WT and mutant enzymes (1 mU) were resuspended in 100 μl reaction buffer (20 mM HEPES; pH 7.4, 50 mM NaCl, 10 mM MgCl2, 1 mM EGTA, and 0.02% Triton-X100, all from Sigma-Aldrich). Reactions were initiated by adding [^14C] N-AS (1–200 μM (0.1–20 μCi), ARC UK Ltd, ARC-1024) and incubated at 37 °C for 1 h. The reactions were terminated by adding 100 μl of ice-cold reaction buffer containing 5 mM cold N-AS and immediately filtered through P30 filtermat (Perkin-Elmer), followed by five washes.
The binding velocity was plotted and the Kcat and KM values were calculated from the Michaelis-Menten analysis using the Sigma-plot program (ver 10.0, Systat software Inc.).

5×FAD mice = assay: western blot of synaptophysin, MAP2, synapsin1, PSD95 (Supplementary Fig 8f-i); type: in vivo, mouse; design: synaptophysin (western blot) / MAP2 (western blot) / synapsin1 (western blot): scale not given here
Experimental: Samples were lysed in RIPA buffer (Cell signaling Technologies), then subjected to SDS-PAGE and transferred to a nitrocellulose membrane. Membranes were blocked with 5% milk, incubated with primary antibody and then incubated with the appropriate horseradish peroxidase-conjugated secondary antibody. […] We performed densitometric quantification using the ImageJ software (National Institutes of Health). Images have been cropped for presentation.
Transgenic mouse lines over-expressing the hAPP695swe (APP) and presenilin-1M146V (PS1) mutations were originated from GlaxoSmithKline (Harlow, UK)[32] and maintained as described previously. We purchased 5×FAD mice from Jackson Labs (Stock number. 34840-JAX). Because APP/PS1 and 5xFAD mice show sex differences in disease progression, we used only male mice. To examine possible therapeutic effect of N-AS and aspirin in APP/PS1 mice, the N-AS (30 mg kg^−1, Sigma-Aldrich, 01912) was injected daily s.c. for 8 weeks to 7-months-old APP/PS1 mice until the age of 9 months, and aspirin (2 mg kg^−1, Sigma-Aldrich, A5376)[33] was administrated orally to 7-months-old APP/PS1 mice for 8 weeks. Also, to confirm possible therapeutic efficacy of N-AS in 5×FAD, the N-AS (30 mg kg^−1, Sigma-Aldrich, 01912) was injected daily s.c. for 4 weeks to 3-months-old 5×FAD mice until the age of 4 months. Block randomization method was used to allocate the animals to experimental groups. To eliminate the bias, we were blinded in experimental progress such as data collection and data analysis. Mice were housed at temperature of 22 °C and a 12 h day/12 h night cycle with free access to tap water and food pellets. All protocols were approved by the Kyungpook National University Institutional Animal Care and Use Committee.

tumors = tested on: tumors; design: method as in PMID 27043542, PMID 24566153; conditions: cited from earlier work
microsomal stability = type: in vitro ADME; conditions: for half-life at 1 µM: pH 7.4
Experimental: An N-AS stock solution (10 mM dissolved in methanol) was diluted with methanol to make a concentration of 100 μM. A 10 μl aliquot of this solution was then diluted using 90 μl of 100 mM potassium phosphate buffer (pH 7.4). 10 μl of this N-AS solution was incubated at 37 °C with human or mouse liver microsomes (80 μl of 0.625 mg protein ml^−1 phosphate buffer) for 10 min before adding of 10 μl of an NADPH regenerating system to start the reaction. Reactions were stopped at 0, 15, 30, 60, and 90 min time-points by the addition of 200 μl cold acetonitrile (containing propranolol as internal standard at 20 ng ml^−1) and centrifuged at 17,968×g for 10 min. A 2 μl aliquot of the supernatant was injected into the LC-MS/MS system. The ratio of peak area of test compound/internal standard was used to determine the % remaining of N-AS over time.

[1] = ATP 1000 µM, 100 µM sphingosine
[2] = SphK1 (WT), Supplementary Fig 1g

CC(=O)SCCNC(=O)CCNC(=O)[C@H](O)C(C)(C)COP(=O)(O)OP(=O)(O)OC[C@H]1O[C@@H](n2cnc3c(N)ncnc32)[C@H](O)[C@@H]1OP(=O)(O)O [Acetyl-CoA, acetyl-CoA]
Kcat of acetyl-CoA binding to SphK1 (SphK1 WT; ATP 0 µM, 100 µM sphingosine): 0.000282 s⁻¹ | Kcat of acetyl-CoA binding to SphK1 (SphK1 WT; ATP 10 µM, 100 µM sphingosine): 0.000268 s⁻¹ | Kcat of acetyl-CoA binding to SphK1 (SphK1 WT; ATP 100 µM, 100 µM sphingosine): 0.000183 s⁻¹ | Kcat of acetyl-CoA binding to SphK1 (SphK1 WT; [1]): 0.000138 s⁻¹ | Kcat of acetyl-CoA binding to SphK1 (SphK1 WT; [2]): 0.000288 s⁻¹ | Km (SphK1 WT; ATP 0 µM, 100 µM sphingosine): 11 µM | Km (SphK1 WT; ATP 10 µM, 100 µM sphingosine): 24.5 µM | Km (SphK1 WT; ATP 10 µM, 100 µM sphingosine, listed as acetyl-CoA): 24.5 µM | Km (SphK1 WT; ATP 100 µM, 100 µM sphingosine): 35.2 µM | Km (SphK1 WT; ATP 100 µM, 100 µM sphingosine, listed as acetyl-CoA): 35.2 µM | Km (SphK1 WT; [1]): 39 µM | Km (SphK1 WT; ATP 1000 µM, 100 µM sphingosine, listed as acetyl-CoA): 39 µM | Km (SphK1 WT; [2]): 10.5 µM

CCCCCCCCCCCCC/C=C/[C@@H](O)[C@H](CO)NC(C)=O [N-AS, N-((2S,3R,E)-1,3-Dihydroxyoctadec-4-en-2-yl)acetamide]
synaptophysin (western blot) (5×FAD mice; 5xFAD+N-AS, sFig 8f (sheet untitled)): 4.053 and 6.357 and 5.065 and 6.083 and 5.205 and 5.711 | MAP2 (western blot) (5×FAD mice; 5xFAD+N-AS, sFig 8g (sheet untitled)): 2.523 and 3.013 and 3.332 and 2.975 and 2.768 and 3.172 | PSD95 (western blot) (5×FAD mice; 5xFAD+N-AS, sFig 8i (sheet untitled)): 1.388 and 2.072 and 1.927 and 1.53 and 1.73 and 1.999 | synapsin1 (western blot) (5×FAD mice; 5xFAD+N-AS, sFig 8h (sheet untitled)): 3.576 and 2.661 and 2.523 and 3.332 and 3.119 and 2.592 | synapse activity (5×FAD mice; 5×FAD, N-AS 30 mg kg^-1 daily s.c. 4 weeks): similarly improved AD pathology of 5×FAD mice | apoptosis of tumors (tumors): induce apoptosis of tumors | % of remaining after 0.5 h (microsomal stability; Mouse liver microsomes): 60.7% | half-life at 1 µM (microsomal stability; Human liver microsomes): 36 min | half-life at 1 µM (microsomal stability; Mouse liver microsomes): 54 min
